{"source": "patent US20240390369A1", "about": "“METHODS FOR DETERMINING RESPONSIVENESS TO TYK2 INHIBITORS” (Bristol-Myers Squibb Company, priority 2021, published 2024)", "tested_on": "patients with psoriatic arthritis", "test": "Phase 2 trial in psoriatic arthritis: ACR20 response at week 16", "assay_type": "in vivo, human", "settings": "for Odds Ratio for ACR20 response / Interaction Term for ACR20 response (ratio of odds ratios): week 16", "method": "In a double-blind Phase 2 trial, 203 patients with psoriatic arthritis were randomized into three groups: deucravacitinib 6 mg once daily (N=70), deucravacitinib 12 mg once daily (N=67), or placebo (N=66). All subjects had active psoriatic arthritis according to the Classification Criteria for Psoriatic Arthritis (CASPAR); for active disease, these criteria required ≥3 tender joint count, ≥3 swollen joint count, and a C-reactive protein level above 3 mg/L. Other inclusion criteria included the following: presence of at least one plaque psoriasis lesion, and prior treatment failure with a non-biologic disease modifying anti-rheumatic drug, a non-steroidal anti-inflammatory drug, or a steroid. With respect to treatment history, approximately 70% of subjects had not received prior treatment with a biologic and were biologic naïve, while up to 30% of subjects had failed or had been intolerant to one TNF-inhibitor (TNF=Tumor necrosis factor, also known as TNFα). Randomization was stratified by prior TNF-inhibitor use (experienced/naïve) and body weight (<90 kg and ≥90 kg).\nClinical measures included the Psoriasis […] (PASI) score for skin psoriasis, American College of Rheumatology 20 (ACR20) response, Psoriatic Arthritis Disease Activity Score (PASDAS), Health Assessment Questionnaire-Disability Index (HAQ-DI), and Disease Activity Score 28 CRP (DAS28). To evaluate the predictive value of different protein measurements for the clinical response to deucravacitinib, baseline protein concentrations for responders and non-responders, as defined by ACR20 or PASI75 at week 16, were compared for each arm (placebo, 6 mg deucravacitinib once-daily, and 12 mg deucravacitinib once-daily).\nBoxplots for baseline protein level by response were generated with a horizontal line indicating the median protein level at baseline. For each treatment arm, a two-sample t-test was performed to test whether mean baseline serum protein level was different in responders versus non-responders. A Wilcoxon rank sum test (Mann-Whitney U test) was also performed to evaluate the difference in median serum protein level between responders and non-responders. Further, barplots of ACR20 and PASI75 response rate at week 16 for each treatment arm were generated for all subjects (protein level high and protein level low subjects, dichotomized according to median baseline level). Line plots of ACR20 and PASI75 response rate over time for each treatment arm were generated for protein level high and protein level low groups. Logistic regression models were also fit to evaluate associations between baseline protein levels and clinical outcome.\nFor certain analyses described herein, patients were dichotomized by median values (e.g., of the proteins listed above or other measures) into “high” and “low” groups, such that the high group had values above the median and the low group had values less than or equal to the median.\nIn addition, logistic regression models were fit for response measures ACR20 and PASI75, to generate the odds ratio of each of the deucravacitinib treatment arms versus placebo, in BD2-high and BD2-low groups. The following logistic regression models were used: • For ACR20 response status: ACR20 (Y/N)=treatment arm+BD2 group+treatment arm*BD2 group+TNF-inhibitor use+baseline weight (continuous). • For PASI75 response status: PASI75 (Y/N)=treatment arm+BD2 group+treatment arm*BD2 group+TNF-inhibitor use+baseline weight (continuous). […] FIGS. 26-31 are forest plots summarizing the logistic regression results of these models (for BD2 and other biomarkers described herein); each “N,” for “Placebo” and “Deucrava,” represents the number of responders in that group. […]"}
{"smiles": "[2H]C([2H])([2H])NC(=O)c1nnc(NC(=O)C2CC2)cc1Nc1cccc(-c2ncn(C)n2)c1OC", "note": "[deucravacitinib, 6-(cyclopropanecarboxamido)-4-((2-methoxy-3-(1-methyl-1H-1,2,4-triazol-3-yl)phenyl)amino)-N-(methyl-d3)pyridazine-3-carboxamide]", "values": [{"measurement": "Odds Ratio for ACR20 response", "setting": "BD2 high (baseline above median 9,265 ng/L), 6 mg QD vs placebo", "result": 4.54}, {"measurement": "Odds Ratio for ACR20 response", "setting": "BD2 high (baseline above median 9,265 ng/L), 12 mg QD vs placebo", "result": 7.33}, {"measurement": "Odds Ratio for ACR20 response", "setting": "BD2 high, treatment arms combined vs placebo", "result": 5.645}, {"measurement": "Odds Ratio for ACR20 response", "setting": "BD2 low, 6 mg QD vs placebo", "result": 1.44}, {"measurement": "Odds Ratio for ACR20 response", "setting": "BD2 low, 12 mg QD vs placebo", "result": 2.15}, {"measurement": "Odds Ratio for ACR20 response", "setting": "BD2 low, treatment arms combined vs placebo", "result": 1.767}, {"measurement": "Odds Ratio, ACR20 response status", "setting": "CRP high, 6 mg QD vs placebo", "result": 2.167}, {"measurement": "Odds Ratio, ACR20 response status", "setting": "CRP high, 12 mg QD vs placebo", "result": 5.140}, {"measurement": "Odds Ratio, ACR20 response status", "setting": "CRP high, treatment arms combined vs placebo", "result": 3.215}, {"measurement": "Odds Ratio, ACR20 response status", "setting": "CRP low, 6 mg QD vs placebo", "result": 2.756}, {"measurement": "Odds Ratio, ACR20 response status", "setting": "CRP low, 12 mg QD vs placebo", "result": 2.676}, {"measurement": "Odds Ratio, ACR20 response status", "setting": "CRP low, treatment arms combined vs placebo", "result": 2.715}, {"measurement": "Odds Ratio, ACR20 response status", "setting": "CRP-high, 6 mg QD vs placebo, adjusted for baseline DAS28", "result": 2.168}, {"measurement": "Odds Ratio, ACR20 response status", "setting": "CRP-high, 12 mg QD vs placebo, adjusted for baseline DAS28", "result": 5.154}, {"measurement": "Odds Ratio, ACR20 response status", "setting": "CRP-low, 6 mg QD vs placebo, adjusted for baseline DAS28", "result": 2.752}, {"measurement": "Odds Ratio, ACR20 response status", "setting": "CRP-low, 12 mg QD vs placebo, adjusted for baseline DAS28", "result": 2.670}, {"measurement": "Odds Ratio for ACR20 response", "setting": "IL-17A high (baseline above median 0.575 ng/L), 6 mg QD vs placebo", "result": 4.30}, {"measurement": "Odds Ratio for ACR20 response", "setting": "IL-17A high (baseline above median 0.575 ng/L), 12 mg QD vs placebo", "result": 5.95}, {"measurement": "ACR20 response rate at week 16", "setting": "IL-17A high group, 6 mg QD and 12 mg QD vs placebo (FIG. 22)", "result": "higher in both 6 mg QD and 12 mg QD treatment arms compared to placebo in the IL-17-high group"}, {"measurement": "Odds Ratio for ACR20 response", "setting": "IL-17A high, treatment arms combined vs placebo", "result": 4.990}, {"measurement": "Odds Ratio for ACR20 response", "setting": "IL-17A low, 6 mg QD vs placebo", "result": 1.39}, {"measurement": "Odds Ratio for ACR20 response", "setting": "IL-17A low, 12 mg QD vs placebo", "result": 2.14}, {"measurement": "Odds Ratio for ACR20 response", "setting": "IL-17A low, treatment arms combined vs placebo", "result": 1.723}, {"measurement": "ACR20 response rate at week 16", "setting": "IL-19-high versus IL-19-low group (FIG. 15)", "result": "a much more pronounced treatment effect (indicating a dose response effect of deucravacitinib) was observed in the IL-19-high group than in the IL-19-low group"}, {"measurement": "Odds Ratio for ACR20 response", "setting": "IL-19 high (baseline above median 36 ng/L), 6 mg QD vs placebo", "result": 4.68}, {"measurement": "Odds Ratio for ACR20 response", "setting": "IL-19 high (baseline above median 36 ng/L), 12 mg QD vs placebo", "result": 11.44}, {"measurement": "Odds Ratio for ACR20 response", "setting": "IL-19 high, treatment arms combined vs placebo", "result": 6.679}, {"measurement": "Odds Ratio for ACR20 response", "setting": "IL-19 low, 6 mg QD vs placebo", "result": 1.41}, {"measurement": "Odds Ratio for ACR20 response", "setting": "IL-19 low, 12 mg QD vs placebo", "result": 1.56}, {"measurement": "Odds Ratio for ACR20 response", "setting": "IL-19 low, treatment arms combined vs placebo", "result": 1.487}, {"measurement": "Interaction Term for ACR20 response (ratio of odds ratios)", "setting": "adjusted for baseline DAS28, 6 mg QD vs placebo: BD2-high versus BD2-low", "result": 3.06}, {"measurement": "Interaction Term for ACR20 response (ratio of odds ratios)", "setting": "adjusted for baseline DAS28, 6 mg QD vs placebo: IL-17A-high versus IL-17A-low", "result": 3.08}, {"measurement": "Interaction Term for ACR20 response (ratio of odds ratios)", "setting": "adjusted for baseline DAS28, 6 mg QD vs placebo: IL-19-high versus IL-19-low", "result": 3.32}, {"measurement": "Interaction Term for ACR20 response (ratio of odds ratios)", "setting": "adjusted for baseline DAS28, 12 mg QD vs placebo: BD2-high versus BD2-low", "result": 3.42}, {"measurement": "Interaction Term for ACR20 response (ratio of odds ratios)", "setting": "adjusted for baseline DAS28, 12 mg QD vs placebo: IL-17A-high versus IL-17A-low", "result": 2.75}, {"measurement": "Odds Ratio for ACR20 response", "setting": "adjusted for baseline DAS28, All patients, 12 mg QD vs placebo", "result": 3.62}, {"measurement": "Odds Ratio for ACR20 response", "setting": "adjusted for baseline DAS28, BD2-high, 6 mg QD vs placebo", "result": 4.42}, {"measurement": "Odds Ratio for ACR20 response", "setting": "adjusted for baseline DAS28, BD2-low, 6 mg QD vs placebo", "result": 1.44}, {"measurement": "Odds Ratio for ACR20 response", "setting": "adjusted for baseline DAS28, BD2-low, 12 mg QD vs placebo", "result": 2.14}, {"measurement": "Odds Ratio for ACR20 response", "setting": "adjusted for baseline DAS28, IL-17A-high, 6 mg QD vs placebo", "result": 4.27}, {"measurement": "Odds Ratio for ACR20 response", "setting": "adjusted for baseline DAS28, IL-17A-high, 12 mg QD vs placebo", "result": 5.92}, {"measurement": "Odds Ratio for ACR20 response", "setting": "adjusted for baseline DAS28, IL-17A-low, 6 mg QD vs placebo", "result": 1.39}, {"measurement": "Odds Ratio for ACR20 response", "setting": "adjusted for baseline DAS28, IL-19-high, 6 mg QD vs placebo", "result": 4.66}, {"measurement": "Odds Ratio for ACR20 response", "setting": "adjusted for baseline DAS28, IL-19-high, 12 mg QD vs placebo", "result": 11.47}, {"measurement": "Odds Ratio for ACR20 response", "setting": "adjusted for baseline DAS28, IL-19-low, 6 mg QD vs placebo", "result": 1.40}, {"measurement": "Odds Ratio for ACR20 response", "setting": "adjusted for baseline DAS28, IL-19-low, 12 mg QD vs placebo", "result": 1.56}, {"measurement": "Interaction Term for ACR20 response (ratio of odds ratios)", "setting": "treatment arms combined vs placebo: BD2 high versus BD2 low", "result": 3.195}, {"measurement": "Interaction Term: treatment arm*CRP group, ACR20", "setting": "treatment arms combined vs placebo: CRP high versus CRP low", "result": 1.184}, {"measurement": "Interaction Term for ACR20 response (ratio of odds ratios)", "setting": "treatment arms combined vs placebo: IL-17A high versus IL-17A low", "result": 2.886}, {"measurement": "Interaction Term for ACR20 response (ratio of odds ratios)", "setting": "treatment arms combined vs placebo: IL-19 high versus IL-19 low", "result": 4.491}]}
